Measured values from patent US11298390B2, “Total flavonoids extract of Gynura formosana Kitam., preparation method therefor and use thereof for treating hyperuricemia” (ZHANGZHOU PIEN TZE HUANG PHARMACEUTICAL CO., LTD., priority 2017, dated 2022).

Legend:
[1] = tested on: mouse model of hyperuricemia; experiment: Uric acid level in serum of hyperuricemia model mice; format: in vivo, Kunming mice; details: xanthine i.p. hyperuricemia mice, dose 0.0002 g/10 g, once daily 11 days, mean ± SD
Protocol: (§1) The mouse model of hyperuricemia was established by intraperitoneal injection of xanthine to increase the content of uric acid precursor in the body and thus to increase the generation of uric acid. The mouse model of hyperuricemia was administered via gavage with the total flavonoid extract from Gynura formosana Kitam. The inhibition rates of uric acid and […] in serum of the mouse and the inhibition rate of the activity of xanthine oxidase in the liver of the mouse were recorded to study the effect of the total flavonoid extract on symptoms of gout caused by hyperuricemia.
(§2) The high, medium and low dose groups of the total flavonoid extract were administered via gavage with an aqueous solution of total flavonoid extract from Gynura formosana Kitam. at a dose of 24 mg/10 mL, 12 mg/10 mL, 6 mg/10 mL, respectively. The model group was administered an equal-volume of saline. All of the drugs were administered once daily for continuous 11 days.
(§3) After 1 hour at last administration, the mice received 10% xanthine dissolved in 0.8% CMC-Na via intraperitoneal injection. After 0.5 hours of modeling, the mice were sacrificed and blood was taken from eyeballs. Then the mice were dissected immediately and livers were taken and stored at a low temperature. […]
(§4) The index was calculated by referring to the instructions. […]

[2] = tested on: mouse model of hyperuricemia; experiment: Creatinine level in serum of hyperuricemia model mice; format: in vivo, Kunming mice; details: dose 0.0002 g/10 g, once daily 11 days, mean ± SD
Protocol: as §1, §2, §3, §4

SMILES: Oc1ncnc2[nH]ncc12 [allopurinol]
- Uric Acid [1]: 22.71 ± 0.27 mg/L
- Creatinine [2]: 23 ± 1 µM
